Laboratory results as given in US11180504B2 (ORCHID PHARMA LTD., priority 2016, dated 2021).
Converted amounts (≈) assume the structure as drawn. Read-outs that look alike come from different tables or passages of the source.

Key:
[1] = tested on: methicillin-sensitive Staphylococcus aureus; experiment: MIC by broth micro-dilution (CLSI), methicillin-sensitive S. aureus; type: cell-based; conditions: MSSA S. aureus ATCC29213
[2] = tested on: carbapenem sensitive Escherichia coli; experiment: MIC by broth micro-dilution (CLSI), carbapenem sensitive E. coli; type: cell-based
[3] = tested on: carbapenemase producing K. pneumoniae; experiment: MIC by broth micro-dilution (CLSI), carbapenemase producing K. pneumoniae; type: cell-based, Klebsiella pneumoniae
[4] = tested on: carbapenem sensitive Pseudomonas aeruginosa; experiment: MIC by broth micro-dilution (CLSI), carbapenem sensitive P. aeruginosa; type: cell-based
[5] = Staphylococcus aureus, ATCC 29213 / MSSA, read-out: MIC
[6] = Escherichia coli, ATCC25922, ESBL −ve E. coli ATCC25922, read-out: MIC
[7] = Klebsiella pneumoniae, ATCCBAA1705, KPC-2 K. pneumoniae ATCC BAA-1705, read-out: MIC
[8] = Pseudomonas aeruginosa, ATCC27853, Meropenem susceptible P. aeruginosa ATCC27853, read-out: MIC
[9] = KPC-2 K. pneumoniae ATCC BAA-1705
[10] = Meropenem susceptible P. aeruginosa ATCC27853

| Compound | MIC [1, 5] | MIC [2, 6] | MIC [3, 7] | MIC [4, 8] | MIC [1] | MIC ([2]; ESBL −ve E. coli ATCC25922) | MIC [3, 9] | MIC [4, 10] |
| --- | --- | --- | --- | --- | --- | --- | --- | --- |
| C[C@@H](NC(=O)CCn1cnnn1)[C@H]1C(=O)N2C(C(=O)O)=C(S[C@@H]3CN[C@H](C(=O)N4CC[C@@H](N)C4)C3)[C@H](C)[C@H]12 [Example 369, (4R,5S,6R)-6-((R)-1-(3-(1H-tetrazol-1-yl)propanamido)ethyl)-3-((3S,5S)-5-((R)-3-aminopyrrolidine-1-carbonyl)pyrrolidin-3-ylthio)-4-methy-7-oxo-1-azabicyclo[3.2.0]hept-2-ene-2-carboxylic acid] | 2 µg/mL (≈ 3.65 µM) | 0.25 µg/mL (≈ 0.457 µM) | 8 µg/mL (≈ 14.6 µM) | 16 µg/mL (≈ 29.2 µM) |  |  |  |  |
| C[C@@H](NC(=O)Cn1cnnn1)[C@H]1C(=O)N2C(C(=O)O)=C(S[C@@H]3CN[C@H](C(=O)N4CCO[C@H]5CNC[C@H]54)C3)[C@H](C)[C@H]12 [Example 471, (4R,5S,6R)-6-((R)-1-(2-(1H-tetrazol-1-yl)acetamido)ethyl)-4-methyl-3-((3S,5S)-5-((4aR,7aS)-octahydropyrrolo[3,4-b][1,4]oxazine-4-carbonyl)pyrrolidin-3-ylthio)-7-oxo-1-azabicyclo[3.2.0]hept-2-ene-2-carboxylic acid] | 2 µg/mL (≈ 3.47 µM) | 0.5 µg/mL (≈ 0.869 µM) | 2 µg/mL (≈ 3.47 µM) | 4 µg/mL (≈ 6.95 µM) |  |  |  |  |
| C[C@@H](NC(=O)Cn1cnnn1)[C@H]1C(=O)N2C(C(=O)O)=C(S[C@@H]3CN[C@H](C(=O)N4CCC5CNCC54CO)C3)[C@H](C)[C@H]12 (single isomer, unassigned) [Example 561] | 4 µg/mL (≈ 6.78 µM) | 0.5 µg/mL (≈ 0.848 µM) | 2 µg/mL (≈ 3.39 µM) | 8 µg/mL (≈ 13.6 µM) |  |  |  |  |
| C[C@@H](NC(=O)Cn1cnnn1)[C@H]1C(=O)N2C(C(=O)O)=C(S[C@@H]3CN[C@H](C(=O)N4CCC(N5CC(O)C5)CC4)C3)[C@H](C)[C@H]12 [Example 426, (4R,5S,6R)-6-((R)-1-(2-(1H-tetrazol-1-yl)acetamido)ethyl)-3-((3S,5S)-5-(4-(3-hydroxyazetidin-1-yl]piperidine-1-carbonyl)pyrrolidin-3-ylthio)-4-methyl-7-oxo-1-azabicyclo[3.2.0]hept-2-ene-2-carboxylic acid] | 4 µg/mL (≈ 6.63 µM) | 0.25 µg/mL (≈ 0.414 µM) | 1 µg/mL (≈ 1.66 µM) | 2 µg/mL (≈ 3.31 µM) |  |  |  |  |
| C[C@@H](NC(=O)Cn1cnnn1)[C@H]1C(=O)N2C(C(=O)O)=C(S[C@@H]3CN[C@H](C(=O)N4C[C@@H](O)[C@H](NC(=N)N)C4)C3)[C@H](C)[C@H]12 [Example 544, (4R,5S,6R)-6-((R)-1-(2-(1H-tetrazol-1-yl)acetamido)ethyl)-3-((3S,5S)-5-((3R,4R)-3-guanidino-4-hydroxypyrrolidine-1-carbonyl)pyrrolidin-3-ylthio)-4-methyl-7-oxo-1-azabicyclo[3.2.0]hept-2-ene-2-carboxylic acid] | 1 µg/mL (≈ 1.69 µM) | 0.25 µg/mL (≈ 0.423 µM) | 0.5 µg/mL (≈ 0.845 µM) | 1 µg/mL (≈ 1.69 µM) |  |  |  |  |
| C[C@H]([C@H]1C(=O)N2C(C(=O)O)=C(S[C@@H]3CN[C@H](C(=O)N(C)C)C3)[C@H](C)[C@H]12)n1nnc(N)n1 [Example 326, (4R,5S,6S)-6-((R) - 1-(5-amino-2H-tetrazol-2-yl)ethyl)-3-((3S,5S)-5-(dimethylcarbamoyl)pyrrolidin-3-ylthio)-4-methyl-7-oxo-1-azabicyclo[3.2.0]hept-2-ene-2-carboxylic acid] | 2 µg/mL (≈ 4.44 µM) | 1 µg/mL (≈ 2.22 µM) | 16 µg/mL (≈ 35.5 µM) | 64 µg/mL (≈ 142 µM) |  |  |  |  |
| C[C@@H](NC(=O)Cn1cnnn1)[C@H]1C(=O)N2C(C(=O)O)=C(S[C@@H]3CN[C@H](CNS(N)(=O)=O)C3)[C@H](C)[C@H]12 [Example 305, (4R,5S,6R)-6-((R) - 1-(2-(1H-tetrazol-1-yl)acetamido)ethyl)-4-methyl-7-oxo-3-((3S,5S)-5-((sulfamoylamino)methyl)pyrrolidin-3-ylthio)-1-azabicyclo[3.2.0]hept-2-ene-2-carboxylic acid] | 2 µg/mL (≈ 3.78 µM) | 0.25 µg/mL (≈ 0.472 µM) | 1 µg/mL (≈ 1.89 µM) | 8 µg/mL (≈ 15.1 µM) |  |  |  |  |
| CNCC(=O)N[C@H](C)[C@H]1C(=O)N2C(C(=O)O)=C(S[C@@H]3CN[C@H](C(=O)N4CC(C)(N)C4)C3)[C@H](C)[C@H]12 [Example 292] | 128 µg/mL (≈ 259 µM) | 4 µg/mL (≈ 8.09 µM) | 8 µg/mL (≈ 16.2 µM) | 16 µg/mL (≈ 32.3 µM) |  |  |  |  |
| C[C@@H](NC(=O)Cn1cnnn1)[C@H]1C(=O)N2C(C(=O)O)=C(SC3COC4(CNC4)C3)[C@H](C)[C@H]12 (single isomer, unassigned) [Example 558] |  |  |  |  | 16 µg/mL (≈ 34.5 µM) | 0.5 µg/mL (≈ 1.08 µM) | 2 µg/mL (≈ 4.31 µM) | 128 µg/mL (≈ 276 µM) |
| COCCNCC(=O)N[C@H](C)[C@H]1C(=O)N2C(C(=O)O)=C(S[C@@H]3CN[C@H](C(=O)N(C)C)C3)[C@H](C)[C@H]12 [Example 518, (4R,5S,6R)-3-((3S,5S)-5-(dimethylcarbamoyl)pyrrolidin-3-ylthio)-6-((R)-1-(2-(2-methoxyethylamino)acetamido)ethyl)-4-methyl-7-oxo-1-azabicyclo[3.2.0]hept-2-ene-2-carboxylic acid] | 8 µg/mL (≈ 16.1 µM) | 1 µg/mL (≈ 2.01 µM) | 4 µg/mL (≈ 8.04 µM) | 128 µg/mL (≈ 257 µM) |  |  |  |  |
| C[C@@H](NC(=O)Cn1cnnn1)[C@H]1C(=O)N2C(C(=O)[O-])=C(SCc3ccc(-c4cn(CCCN)[n+](C)c4)cc3)[C@H](C)[C@H]12 [Example 596, (4R,5S,6R)-6-((R)-1-(2-(1H-tetrazol-1-yl)acetamido)ethyl)-3-(4-(1-(3-aminopropyl)-2-methyl-1H-pyrazol-2-ium-4-yl)benzylthio)-4-methyl-7-oxo-1-azabicyclo[3.2.0]hept-2-ene-2-carboxylate] | 2 µg/mL (≈ 3.45 µM) | 1 µg/mL (≈ 1.73 µM) | 16 µg/mL (≈ 27.6 µM) | 32 µg/mL (≈ 55.2 µM) |  |  |  |  |
| C[C@@H](NC(=O)Cn1cnnn1)[C@H]1C(=O)N2C(C(=O)O)=C(S[C@@H]3CN[C@H](C(=O)Nc4cccc(C(=O)N5CCNCC5)c4)C3)[C@H](C)[C@H]12 [Example 483, (4R,5S,6R)-6-((R)-1-(2-(1H-tetrazol-1-yl)acetamido)ethyl)-4-methyl-7-oxo-3-((3S,5S)-5-(3-(piperazine-1-carbonyl)phenylcarbamoyl)pyrrolidin-3-ylthio)-1-azabicyclo[3.2.0]] | 4 µg/mL (≈ 6.13 µM) | 0.5 µg/mL (≈ 0.766 µM) | 4 µg/mL (≈ 6.13 µM) | 128 µg/mL (≈ 196 µM) |  |  |  |  |
| C[C@@H](NC(=O)Cc1nnn(C)n1)[C@H]1C(=O)N2C(C(=O)O)=C(S[C@@H]3CN[C@H](C(=O)N4CC[C@@H](N)C4)C3)[C@H](C)[C@H]12 [Example 302] | 2 µg/mL (≈ 3.65 µM) | 1 µg/mL (≈ 1.83 µM) | 16 µg/mL (≈ 29.2 µM) | 128 µg/mL (≈ 234 µM) |  |  |  |  |
| C[C@@H](NC(=O)Cn1cnnn1)[C@H]1C(=O)N2C(C(=O)O)=C(S[C@@H]3CN[C@H](C(=O)N4CCC5CN(C[C@@H](O)CN)CCC54)C3)[C@H](C)[C@H]12 (single isomer, unassigned) [Example 532] |  |  |  |  | 4 µg/mL (≈ 6.18 µM) | 0.25 µg/mL (≈ 0.387 µM) | 2 µg/mL (≈ 3.09 µM) | 2 µg/mL (≈ 3.09 µM) |
| CNCC(=O)N[C@H](C)[C@H]1C(=O)N2C(C(=O)O)=C(S[C@@H]3CN[C@H](C(=O)N4CCC5CNCCC54)C3)[C@H](C)[C@H]12 (single isomer, unassigned) [Example 490] | 32 µg/mL (≈ 59.8 µM) | 2 µg/mL (≈ 3.74 µM) | 2 µg/mL (≈ 3.74 µM) | 32 µg/mL (≈ 59.8 µM) |  |  |  |  |
| C[C@@H](NC(=O)Cn1cnnn1)[C@H]1C(=O)N2C(C(=O)O)=C(S[C@@H]3CN[C@H](C(=O)N4CCC5(CCNC5)CC4)C3)[C@H](C)[C@H]12 [Example 435, (4R,5S,6R)-6-((R)-1-(2-(1H-tetrazol-1-yl)acetamido)ethyl)-3-((3S,5S)-5-(2,8-diazaspiro[4.5]decane-8-carbonyl)pyrrolidin-3-ylthio)-4-methyl-7-oxo-1-azabicyclo[3.2.0]hept-2-ene-2-carboxylic acid] | 2 µg/mL (≈ 3.4 µM) | 0.25 µg/mL (≈ 0.425 µM) | 1 µg/mL (≈ 1.7 µM) | 1 µg/mL (≈ 1.7 µM) |  |  |  |  |
| C[C@@H](NC(=O)Cn1cnnn1)[C@H]1C(=O)N2C(C(=O)O)=C(S[C@@H]3CN[C@H](C(=O)N4CCC5CNCC54)C3)[C@H](C)[C@H]12 (single isomer, unassigned) [Example 467] |  |  |  |  | 8 µg/mL (≈ 14.3 µM) | 1 µg/mL (≈ 1.79 µM) | 2 µg/mL (≈ 3.57 µM) | 8 µg/mL (≈ 14.3 µM) |
| C[C@@H](NC(=O)Cn1cnnn1)[C@H]1C(=O)N2C(C(=O)O)=C(S[C@@H]3CN[C@H](C(=O)N4C[C@@H](N)C[C@H]4CF)C3)[C@H](C)[C@H]12 [Example 491, (4R,5S,6R)-6-((R)-1-(2-(1H-tetrazol-1-yl)acetamido)ethyl)-3-((3S,5S)-5-((2S,4S)-4-amino-2-(fluoromethyl)pyrrolidine-1-carbonyl)pyrrolidin-3-ylthio)-4-methyl-7-oxo-1-azabicyclo[3.2.0]hept-2-eoe-2-carboxylic acid] | 4 µg/mL (≈ 7.07 µM) | 0.25 µg/mL (≈ 0.442 µM) | 2 µg/mL (≈ 3.54 µM) | 8 µg/mL (≈ 14.1 µM) |  |  |  |  |
| C[C@@H](NC(=O)Cn1cnnn1)[C@H]1C(=O)N2C(C(=O)O)=C(S[C@@H]3CN[C@H](C(=O)N4C[C@@H](O)[C@@H](N)C4)C3)[C@H](C)[C@H]12 [Example 431, (4R,5S,6R)-6-((R)-1-(2-(1H-tetrazol-1-yl)acetamido)ethyl)-3-((3S,5S)-5-((3S,4R)-3-amino-4-hydroxypyrrolidine-1-carbonyl)pyrrolidin-3-ylthio)-4-methyl-7-oxo-1-azabicyclo[3.2.0]hept-2-ene-2-carboxylic acid] | 2 µg/mL (≈ 3.64 µM) | 0.25 µg/mL (≈ 0.455 µM) | 0.5 µg/mL (≈ 0.91 µM) | 1 µg/mL (≈ 1.82 µM) |  |  |  |  |
